{"source": "paper PMC12040169", "about": "(PLOS Biology, 2025)", "assay": "in vitro", "conditions": "human, hela cells, % viability"}
{"compound": "CN(Cc1nccs1)C(=O)NC1CCN(Cc2cccc(O)c2)CC1", "note": "[CBK307657]", "values": [{"measurement": "viability at 28.5 h, 10 µM", "result": 96.7, "unit": "%"}]}
{"compound": "Cc1nn(C)c(C)c1-c1ccnc(NCCC2(O)CCN(C)CC2)n1", "note": "[CBK307659]", "values": [{"measurement": "viability at 28.5 h, 10 µM", "result": 86.1, "unit": "%"}]}
{"compound": "CC(=O)Nc1ccc(CNC(=O)CN(C)Cc2cccc(O)c2)cc1", "note": "[CBK307660]", "values": [{"measurement": "viability at 28.5 h, 10 µM", "result": 84.8, "unit": "%"}]}
{"compound": "COc1cc(Cn2ncc(N3CCCCC3)cc2=O)cc(OC)c1", "note": "[CBK307662]", "values": [{"measurement": "viability at 28.5 h, 10 µM", "result": 97.1, "unit": "%"}]}
{"compound": "COc1cccn(CC(=O)N2CCc3sc(C(=O)N(C)C)cc3C2)c1=O", "note": "[CBK307665]", "values": [{"measurement": "viability at 28.5 h, 10 µM", "result": 90.5, "unit": "%"}]}
{"compound": "CC(C)c1nc(CCN(C)C(=O)NCc2cnc3cnccn23)no1", "note": "[CBK307666]", "values": [{"measurement": "viability at 28.5 h, 10 µM", "result": 108, "unit": "%"}]}
{"compound": "Cc1nn(CC(=O)N(C)C(C)c2ccncn2)c(=O)c2ccccc12", "note": "(stereo not shown) [CBK307669]", "values": [{"measurement": "viability at 28.5 h, 10 µM", "result": 89, "unit": "%"}]}
{"compound": "CCc1nnsc1C(=O)Nc1nn(C)c2cccc(N3CCOCC3)c12", "note": "[CBK307671]", "values": [{"measurement": "viability at 28.5 h, 10 µM", "result": 84.4, "unit": "%"}]}
{"compound": "COc1ccccc1CN(Cc1cccnc1)C(=O)NC(C)C(C)C", "note": "(stereo not shown) [CBK307672]", "values": [{"measurement": "viability at 28.5 h, 10 µM", "result": 85.2, "unit": "%"}]}
{"compound": "Cc1nc(CCNC(=O)N(Cc2ccsc2)C2CC2)nc2c1CCCC2", "note": "[CBK307674]", "values": [{"measurement": "viability at 28.5 h, 10 µM", "result": 88.5, "unit": "%"}]}
{"compound": "COc1cccc2ncn(CCc3csc(N)n3)c(=O)c12", "note": "[CBK307679]", "values": [{"measurement": "viability at 28.5 h, 10 µM", "result": 81.9, "unit": "%"}]}
{"compound": "COCCN1CC(CNC(=O)c2ccc(N3CCCC3)c(Cl)c2)CC1=O", "note": "(stereo not shown) [CBK307680]", "values": [{"measurement": "viability at 28.5 h, 10 µM", "result": 84, "unit": "%"}]}
{"compound": "CN1CCC(OCCCn2ccnc2-c2nccn2C)CC1", "note": "[CBK307683]", "values": [{"measurement": "viability at 28.5 h, 10 µM", "result": 96.2, "unit": "%"}]}
{"compound": "CCC(C(=O)Nc1nccs1)N(C)Cc1n[nH]c2c1CCC2", "note": "(stereo not shown) [CBK307685]", "values": [{"measurement": "viability at 28.5 h, 10 µM", "result": 99, "unit": "%"}]}
{"compound": "CC1(C)Cc2nc(N3CCOCC3)ncc2C(NC(=O)C2CCCC2)C1", "note": "(stereo not shown) [CBK307687]", "values": [{"measurement": "viability at 28.5 h, 10 µM", "result": 115, "unit": "%"}]}
{"compound": "CCCc1ccc(-c2nccn2CCn2cc(C)nn2)o1", "note": "[CBK307688]", "values": [{"measurement": "viability at 28.5 h, 10 µM", "result": 101, "unit": "%"}]}
{"compound": "Cn1ncc(N2CCC(CNC(=O)Cc3ccc(O)c(Cl)c3)C2)cc1=O", "note": "(stereo not shown) [CBK307689]", "values": [{"measurement": "viability at 28.5 h, 10 µM", "result": 113, "unit": "%"}]}
{"compound": "Cc1nc(C2CC(O)C2)cc(N(C)CCOc2cccc(Cl)c2)n1", "note": "(stereo not shown) [CBK307691]", "values": [{"measurement": "viability at 28.5 h, 10 µM", "result": 94.6, "unit": "%"}]}
{"compound": "CCOc1ccc(-c2ccnc(NCC3CCCOC3)n2)cc1C(=O)O", "note": "(stereo not shown) [CBK307694]", "values": [{"measurement": "viability at 28.5 h, 10 µM", "result": 88.2, "unit": "%"}]}
{"compound": "Cc1ccc(C)c(OCCN(C)c2cc(C3CC(N)C3)nc(N)n2)c1", "note": "(stereo not shown) [CBK307695]", "values": [{"measurement": "viability at 28.5 h, 10 µM", "result": 45.4, "unit": "%"}]}
{"compound": "CCOc1ccc(-c2ccnc(N3CCN(CC)CC3)n2)cc1C(=O)O", "note": "[CBK307697]", "values": [{"measurement": "viability at 28.5 h, 10 µM", "result": 80.6, "unit": "%"}]}
{"compound": "CCC(O)CNC(=O)c1coc(COc2ccc3sc(C)nc3c2)n1", "note": "(stereo not shown) [CBK307700]", "values": [{"measurement": "viability at 28.5 h, 10 µM", "result": 90.8, "unit": "%"}]}
{"compound": "Cn1ncc2c(NCC(=O)N3CCNCC3)nc(C(C)(C)C)nc21", "note": "[CBK307702]", "values": [{"measurement": "viability at 28.5 h, 10 µM", "result": 120, "unit": "%"}]}
{"compound": "CCCOC1CCCN(c2nccc(-c3cc(C(=O)O)ccn3)n2)C1", "note": "(stereo not shown) [CBK307703]", "values": [{"measurement": "viability at 28.5 h, 10 µM", "result": 101, "unit": "%"}]}
{"compound": "COCCNc1nc2c(c(N3CCC(C#N)CC3)n1)CCNCC2", "note": "[CBK307706]", "values": [{"measurement": "viability at 28.5 h, 10 µM", "result": 86.6, "unit": "%"}]}
{"compound": "Cc1ccc2nc(N3CCCC(O)C3)c(CN3CCN(C)CC3)cc2c1", "note": "(stereo not shown) [CBK307710]", "values": [{"measurement": "viability at 28.5 h, 10 µM", "result": 100, "unit": "%"}]}
{"compound": "CCN(CCc1nc2cc(OC)ccc2[nH]1)C(=O)c1ccc(=O)n(C)n1", "note": "[CBK307712]", "values": [{"measurement": "viability at 28.5 h, 10 µM", "result": 108, "unit": "%"}]}
{"compound": "COc1ccccc1CN(Cc1cccnc1)C(=O)CCC(F)(F)F", "note": "[CBK307713]", "values": [{"measurement": "viability at 28.5 h, 10 µM", "result": 92.3, "unit": "%"}]}
